Assay results from patent publication US20260200920A1, “SUBSTITUTED AMINOPYRIDINE COMPOUNDS FOR USE AS AKT1 INHIBITORS” (Atavistik Bio, Inc., priority 2023, published 2026).

Columns and labels:
[1] = biological target: T1, human recombinant kinase full-length AKT1 E17K (Homo sapiens, UniProt P31749, E17K); test: AKT1 E17K kinase assay (TR-FRET, Lance); assay type: biochemical; details: 0.6 nM AKT1 E17K, 50 nM Ulight-CREBtide, either 50 μM ATP or 2 mM ATP, 60 min at RT
T1 construct: Purified human recombinant kinase full-length AKT1 E17K was expressed in insect cells; made in house; host or cells: insect cells
How it was run: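 Full-length AKT1 E17K from insect cells, PDPK1-activated, at 0.6 nM with 50 nM Ulight-CREBtide and 50 μM or 2 mM ATP, pH 7.5, 1% DMSO. Enzyme and compound preincubated 15 min, reaction run 60 min at RT; Eu-anti-phospho-CREB (Ser133) TR-FRET 665/620 ratio, 10-point curve, IC50 by 4-parameter fit.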

[2] = biological target: T2, human recombinant kinase full-length wildtype AKT1 (Homo sapiens, UniProt P31749); test: AKT1 kinase assay (wildtype, TR-FRET, Lance); assay type: biochemical; details: 0.6 nM wildtype AKT1, 50 nM Ulight-CREBtide, either 50 μM ATP or 2 mM ATP, 60 min at RT
T2 construct: Purified human recombinant kinase full-length wildtype AKT1 was expressed in insect cells; made in house; host or cells: insect cells
How it was run: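 Insect-cell-expressed full-length human AKT1, PDPK1-activated (0.6 nM), preincubated with compound 15 min at RT, then reacted 60 min at RT with 50 nM ULight-CREBtide and 50 μM or 2 mM ATP (pH 7.5, 1% DMSO). Phospho-CREBtide read by Eu-anti-phospho-Ser133 TR-FRET (665/620 ratio); IC50 from 10-point 4-parameter fit.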

T2 sequence (P31749 whole entry): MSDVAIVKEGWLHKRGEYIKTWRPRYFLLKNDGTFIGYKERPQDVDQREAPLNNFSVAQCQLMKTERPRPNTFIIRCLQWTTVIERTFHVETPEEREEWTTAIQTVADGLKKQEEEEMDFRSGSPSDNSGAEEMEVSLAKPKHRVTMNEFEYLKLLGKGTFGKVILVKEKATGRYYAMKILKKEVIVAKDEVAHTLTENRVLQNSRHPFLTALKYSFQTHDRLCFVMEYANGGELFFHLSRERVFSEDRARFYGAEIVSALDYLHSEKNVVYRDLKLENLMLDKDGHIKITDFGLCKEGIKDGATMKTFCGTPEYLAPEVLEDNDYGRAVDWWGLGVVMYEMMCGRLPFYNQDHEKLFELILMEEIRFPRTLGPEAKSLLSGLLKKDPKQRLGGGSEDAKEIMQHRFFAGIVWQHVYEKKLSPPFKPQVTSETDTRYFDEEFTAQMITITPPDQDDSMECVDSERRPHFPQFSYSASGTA
T1 sequence (P31749 whole entry E17K): as the sequence (P31749 whole entry) above, with E17K counted along it

| Structure (SMILES) | IC50 [1] | IC50 [2] |
| --- | --- | --- |
| CC(C)(C(=O)O)C1CCN(c2ccc(-n3c(-c4cccnc4N)nc4ccc(-c5ccccc5)nc43)cn2)C1 (stereo not shown) [Compound I-39, 2-(1-(5-(2-(2-aminopyridin-3-yl)-5-phenyl-3H-imidazo[4,5-b]pyridin-3-yl)pyridin-2-yl)pyrrolidin-3-yl)-2-methylpropanoic acid] | ≥ 2000 nM | < 20000 nM |
| C[C@H]([C@H]1CC[C@H](C(=O)O)CC1)N1CC(c2ccc(-n3c(-c4cccnc4N)nc4ccc(-c5ccccc5)nc43)cc2)C1 [Compound I-59, (1R,4r)-4-((R)-1-(3-(4-(2-(2-aminopyridin-3-yl)-5-phenyl-3H-imidazo[4,5-b]pyridin-3-yl)phenyl)azetidin-1-yl)ethyl)cyclohexane-1-carboxylic acid] | < 500 nM | < 20000 nM |
| C[C@@H]([C@H]1CC[C@H](C(=O)O)CC1)N1CC(c2ccc(-n3c(-c4cccnc4N)nc4ccc(-c5ccccc5)nc43)cc2)C1 [Compound I-60, (1S,4r)-4-((S)-1-(3-(4-(2-(2-aminopyridin-3-yl)-5-phenyl-3H-imidazo[4,5-b]pyridin-3-yl)phenyl)azetidin-1-yl)ethyl)cyclohexane-1-carboxylic acid] | 500 to 2000 nM | < 20000 nM |
| Nc1ncccc1-c1nc2ccc(-c3ccccc3)nc2n1-c1ccc(C2CN(C[C@@H]3CC[C@@H](C(=O)O)C3)C2)cc1 [Compound I-61, (1R,3R)-3-((3-(4-(2-(2-aminopyridin-3-yl)-5-phenyl-3H-imidazo[4,5-b]pyridin-3-yl)phenyl)azetidin-1-yl)methyl)cyclopentane-1-carboxylic acid] | < 500 nM | < 20000 nM |
| Nc1ncccc1-c1nc2ccc(-c3ccccc3)nc2n1-c1ccc(C2CN(C[C@H]3CC[C@H](C(=O)O)CC3)C2)c(F)c1 [Compound I-62, (1r,4r)-4-((3-(4-(2-(2-aminopyridin-3-yl)-5-phenyl-3H-imidazo[4,5-b]pyridin-3-yl)-2-fluorophenyl)azetidin-1-yl)methyl)cyclohexane-1-carboxylic acid] | 500 to 2000 nM | < 20000 nM |
| Nc1ncccc1-c1nc2ccc(-c3ccccc3)nc2n1-c1ccc(C2CN(C[C@H]3CC[C@@H](C(=O)O)CC3)C2)c(F)c1 [Compound I-63, (1s,4s)-4-((3-(4-(2-(2-aminopyridin-3-yl)-5-phenyl-3H-imidazo[4,5-b]pyridin-3-yl)-2-fluorophenyl)azetidin-1-yl)methyl)cyclohexane-1-carboxylic acid] | 500 to 2000 nM | < 20000 nM |
| Nc1ncccc1-c1nc2ccc(-c3ccccc3)nc2n1-c1ccc(C2CN(CC3CCC(C(=O)O)CC3)C2)nc1 (stereo not shown) [Compound I-64, 4-((3-(5-(2-(2-aminopyridin-3-yl)-5-phenyl-3H-imidazo[4,5-b]pyridin-3-yl)pyridin-2-yl)azetidin-1-yl)methyl)cyclohexane-1-carboxylic acid] | ≥ 2000 nM | < 20000 nM |
| Nc1ncccc1-c1nc2cc(-c3ccccc3)cnc2n1-c1ccc(C2CN(C[C@H]3CC[C@H](C(=O)O)CC3)C2)cc1 [Compound I-65, (1r,4r)-4-((3-(4-(2-(2-aminopyridin-3-yl)-6-phenyl-3H-imidazo[4,5-b]pyridin-3-yl)phenyl)azetidin-1-yl)methyl)cyclohexane-1-carboxylic acid] | ≥ 2000 nM | < 20000 nM |
| Nc1ncccc1-c1nc2ccc(-c3ccc(F)cc3)nc2n1-c1ccc(C2CN(C[C@H]3CC[C@H](C(=O)O)CC3)C2)cc1 [Compound I-66, (1r,4r)-4-((3-(4-(2-(2-aminopyridin-3-yl)-5-(4-fluorophenyl)-3H-imidazo[4,5-b]pyridin-3-yl)phenyl)azetidin-1-yl)methyl)cyclohexane-1-carboxylic acid] | 500 to 2000 nM | < 20000 nM |
| Nc1ncccc1-c1nc2cc(-c3ccc(F)cc3)cnc2n1-c1ccc(C2CN(C[C@H]3CC[C@H](C(=O)O)CC3)C2)cc1 [Compound I-67, (1r,4r)-4-((3-(4-(2-(2-aminopyridin-3-yl)-6-(4-fluorophenyl)-3H-imidazo[4,5-b]pyridin-3-yl)phenyl)azetidin-1-yl)methyl)cyclohexane-1-carboxylic acid] | ≥ 2000 nM | < 20000 nM |
| Nc1ncccc1-c1nc2ccc(-c3ccccn3)cc2n1-c1ccc(C2CN(C[C@H]3CC[C@H](C(=O)O)CC3)C2)cc1 [Compound I-68, (1r,4r)-4-((3-(4-(2-(2-aminopyridin-3-yl)-6-(pyridin-2-yl)-1H-benzo[d]imidazol-1-yl)phenyl)azetidin-1-yl)methyl)cyclohexane-1-carboxylic acid] | ≥ 2000 nM | < 20000 nM |

Further lines, results first:

| IC50 [1] | IC50 [2] | Structure (SMILES) |
| --- | --- | --- |
| < 500 nM | < 20000 nM | Nc1ncccc1-c1nc2ccc(-c3ccccc3)nc2n1-c1ccc(C2CN(C(=O)C3CC(=O)CC(=O)C3)C2)cc1 [Compound I-37, 5-(3-(4-(2-(2-aminopyridin-3-yl)-5-phenyl-3H-imidazo[4,5-b]pyridin-3-yl)phenyl)azetidine-1-carbonyl)cyclohexane-1,3-dione] |
| < 500 nM | < 20000 nM | Nc1ncccc1-c1nc2ccc(-c3ccccc3)nc2n1-c1ccc(CNC(=O)C2CC(=O)CC(=O)C2)cc1 [Compound I-38, N-(4-(2-(2-aminopyridin-3-yl)-5-phenyl-3H-imidazo[4,5-b]pyridin-3-yl)benzyl)-3,5-dioxocyclohexane-1-carboxamide] |
| < 500 nM | < 20000 nM | Nc1ncccc1-c1nc2ccc(-c3ccc(F)cc3)nc2n1-c1ccc(NC(=O)[C@H]2CC[C@H](C(=O)O)CC2)nc1 [Compound I-40, (1r,4r)-4-((5-(2-(2-aminopyridin-3-yl)-5-(4-fluorophenyl)-3H-imidazo[4,5-b]pyridin-3-yl)pyridin-2-yl)carbamoyl)cyclohexane-1-carboxylic acid] |
| < 500 nM | < 20000 nM | Nc1ncccc1-c1nc2ccc(-n3cccn3)nc2n1-c1ccc(NC(=O)[C@H]2CC[C@H](C(=O)O)CC2)nc1 [Compound I-41, (1r,4r)-4-((5-(2-(2-aminopyridin-3-yl)-5-(1H-pyrazol-1-yl)-3H-imidazo[4,5-b]pyridin-3-yl)pyridin-2-yl)carbamoyl)cyclohexane-1-carboxylic acid] |
| < 500 nM | < 20000 nM | Nc1ncccc1-c1nc2ccc(-c3ccccc3)nc2n1-c1ccc(NC[C@H]2CC[C@H](C(=O)O)CC2)nc1 [Compound I-43, (1r,4r)-4-(((5-(2-(2-aminopyridin-3-yl)-5-phenyl-3H-imidazo[4,5-b]pyridin-3-yl)pyridin-2-yl)amino)methyl)cyclohexane-1-carboxylic acid] |
| < 500 nM | < 20000 nM | Nc1ncccc1-c1nc2ccc(-c3ccccc3)nc2n1-c1ccc(NC(=O)C2CC3(CC(C(=O)O)C3)C2)cc1 (stereo not shown) [Compound I-46, 6-[[4-[2-(2-amino-3-pyridyl)-5-phenyl-imidazo[4,5-b]pyridin-3-yl]phenyl]carbamoyl]spiro[3.3]heptane-2-carboxylic acid] |
| < 500 nM | < 20000 nM | Nc1ncccc1-c1nc2ccc(-c3ccccc3)nc2n1-c1ccc(NC(=O)C2CC3(CC(C(=O)O)C3)C2)c(F)c1 (stereo not shown) [Compound I-47, 6-((4-(2-(2-aminopyridin-3-yl)-5-phenyl-3H-imidazo[4,5-b]pyridin-3-yl)-2-fluorophenyl)carbamoyl)spiro[3.3]heptane-2-carboxylic acid] |
| < 500 nM | < 20000 nM | Nc1ncccc1-c1nc2ccc(-c3ccccc3)nc2n1-c1ccc(NC(=O)C2CC3C(C2)C3C(=O)O)nc1 (stereo not shown) [Compound I-48, 3-((5-(2-(2-aminopyridin-3-yl)-5-phenyl-3H-imidazo[4,5-b]pyridin-3-yl)pyridin-2-yl)carbamoyl)bicyclo[3.1.0]hexane-6-carboxylic acid] |
| < 500 nM | < 20000 nM | Nc1ncccc1-c1nc2ccc(-c3ccccc3)nc2n1-c1ccc(NC(=O)N2CCC(C(=O)O)C2)cc1 (stereo not shown) [Compound I-52, 1-[[4-[2-(2-amino-3-pyridyl)-5-phenyl-imidazo[4,5-b]pyridin-3-yl]phenyl]carbamoyl]pyrrolidine-3-carboxylic acid] |
| < 500 nM | < 20000 nM | Nc1ncccc1-c1nc2ccc(-c3ccccc3)nc2n1-c1ccc(NC(=O)N2CCC(C(=O)O)CC2)cc1 [Compound I-53, 1-[[4-[2-(2-amino-3-pyridyl)-5-phenyl-imidazo[4,5-b]pyridin-3-yl]phenyl]carbamoyl]piperidine-4-carboxylic acid] |
| < 500 nM | < 20000 nM | Nc1ncccc1-c1nc2ccc(-c3ccccc3)nc2n1-c1ccc(C2CN(C[C@H]3CC[C@H](C(=O)O)CC3)C2)cc1 [Compound I-57, (1r,4r)-4-((3-(4-(2-(2-aminopyridin-3-yl)-5-phenyl-3H-imidazo[4,5-b]pyridin-3-yl)phenyl)azetidin-1-yl)methyl)cyclohexane-1-carboxylic acid] |
| < 500 nM | < 20000 nM | Nc1ncccc1-c1nc2ccc(-c3ccccc3)nc2n1-c1ccc(C2CN(C[C@@H]3CC[C@H](C(=O)O)C3)C2)cc1 [Compound I-58, (1S,3R)-3-((3-(4-(2-(2-aminopyridin-3-yl)-5-phenyl-3H-imidazo[4,5-b]pyridin-3-yl)phenyl)azetidin-1-yl)methyl)cyclopentane-1-carboxylic acid] |
